# In ChEMBL document CHEMBL4477246, “New small molecule inhibitors of histone methyl transferase DOT1L with a nitrile as a non-traditional replacement for heavy halogen atoms” (Bioorg Med Chem Lett, 2016):
# What was measured:
# [1] = molecular target: T1, Histone-lysine N-methyltransferase, H3 lysine-79 specific (Homo sapiens, UniProt Q8TEK3); test: Inhibition of DOT1L (unknown origin) using chicken nucleosome as substrate in presence of [3H]SAM incubated for 1 hr by TopCount method
# Target sequence in this assay (Q8TEK3 whole entry): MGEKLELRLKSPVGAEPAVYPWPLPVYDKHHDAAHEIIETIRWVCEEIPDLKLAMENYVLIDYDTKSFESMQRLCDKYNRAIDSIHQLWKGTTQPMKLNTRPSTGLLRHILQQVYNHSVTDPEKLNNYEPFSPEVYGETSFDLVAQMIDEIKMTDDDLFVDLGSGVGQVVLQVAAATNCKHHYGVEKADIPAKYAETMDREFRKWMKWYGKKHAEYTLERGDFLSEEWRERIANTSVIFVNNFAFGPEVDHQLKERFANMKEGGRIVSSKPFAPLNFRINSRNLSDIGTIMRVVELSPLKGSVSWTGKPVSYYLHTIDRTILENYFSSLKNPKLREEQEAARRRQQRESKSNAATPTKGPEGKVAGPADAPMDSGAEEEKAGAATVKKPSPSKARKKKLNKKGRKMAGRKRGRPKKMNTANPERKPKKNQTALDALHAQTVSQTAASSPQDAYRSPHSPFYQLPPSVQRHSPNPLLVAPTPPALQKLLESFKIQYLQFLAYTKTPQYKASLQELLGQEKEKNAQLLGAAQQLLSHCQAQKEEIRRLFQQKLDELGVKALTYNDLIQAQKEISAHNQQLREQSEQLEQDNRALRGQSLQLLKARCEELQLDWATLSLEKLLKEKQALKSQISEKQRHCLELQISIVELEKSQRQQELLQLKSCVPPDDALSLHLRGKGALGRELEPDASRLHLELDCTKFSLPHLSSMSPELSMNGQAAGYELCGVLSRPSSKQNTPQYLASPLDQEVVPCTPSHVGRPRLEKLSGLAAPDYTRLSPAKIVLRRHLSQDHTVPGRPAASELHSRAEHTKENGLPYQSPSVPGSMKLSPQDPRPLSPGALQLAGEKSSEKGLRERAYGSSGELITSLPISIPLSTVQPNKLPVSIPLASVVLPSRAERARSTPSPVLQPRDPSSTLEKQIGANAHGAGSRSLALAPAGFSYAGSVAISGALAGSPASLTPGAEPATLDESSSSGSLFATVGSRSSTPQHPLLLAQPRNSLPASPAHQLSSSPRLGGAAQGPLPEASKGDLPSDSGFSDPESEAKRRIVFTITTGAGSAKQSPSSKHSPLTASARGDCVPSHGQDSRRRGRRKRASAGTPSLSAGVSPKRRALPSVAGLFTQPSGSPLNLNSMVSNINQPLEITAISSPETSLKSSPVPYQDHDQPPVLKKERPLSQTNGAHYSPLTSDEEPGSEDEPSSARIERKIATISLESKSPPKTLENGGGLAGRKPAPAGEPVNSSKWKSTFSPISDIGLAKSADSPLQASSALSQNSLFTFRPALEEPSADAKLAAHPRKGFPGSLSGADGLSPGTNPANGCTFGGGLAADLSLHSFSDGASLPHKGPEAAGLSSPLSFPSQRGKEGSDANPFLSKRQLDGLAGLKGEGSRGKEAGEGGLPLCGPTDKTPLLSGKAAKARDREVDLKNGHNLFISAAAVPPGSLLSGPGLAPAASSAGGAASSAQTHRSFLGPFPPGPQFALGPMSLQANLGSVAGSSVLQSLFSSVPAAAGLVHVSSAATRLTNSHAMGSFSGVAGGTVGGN
# [2] = molecular target: Histone-lysine N-methyltransferase SUV39H2 (Homo sapiens, UniProt Q9H5I1); test: Inhibition of SUV39H2 (unknown origin)
# Histone-lysine N-methyltransferase SUV39H2, sequence (Q9H5I1 whole entry): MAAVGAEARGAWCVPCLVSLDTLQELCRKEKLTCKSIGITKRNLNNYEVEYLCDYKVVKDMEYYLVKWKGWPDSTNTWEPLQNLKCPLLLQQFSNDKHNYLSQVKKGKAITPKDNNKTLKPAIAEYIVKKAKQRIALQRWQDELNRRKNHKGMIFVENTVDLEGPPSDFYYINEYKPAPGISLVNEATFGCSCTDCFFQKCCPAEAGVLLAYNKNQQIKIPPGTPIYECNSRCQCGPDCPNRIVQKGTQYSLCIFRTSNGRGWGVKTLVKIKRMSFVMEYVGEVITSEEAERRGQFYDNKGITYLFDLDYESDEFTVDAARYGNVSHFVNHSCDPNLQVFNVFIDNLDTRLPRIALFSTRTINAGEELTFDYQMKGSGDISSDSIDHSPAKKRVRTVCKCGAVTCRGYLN
# [3] = molecular target: T2, Histone-lysine N-methyltransferase EHMT2 (Homo sapiens, UniProt Q96KQ7); test: Inhibition of G9a (unknown origin)
# T2 sequence (Q96KQ7 whole entry): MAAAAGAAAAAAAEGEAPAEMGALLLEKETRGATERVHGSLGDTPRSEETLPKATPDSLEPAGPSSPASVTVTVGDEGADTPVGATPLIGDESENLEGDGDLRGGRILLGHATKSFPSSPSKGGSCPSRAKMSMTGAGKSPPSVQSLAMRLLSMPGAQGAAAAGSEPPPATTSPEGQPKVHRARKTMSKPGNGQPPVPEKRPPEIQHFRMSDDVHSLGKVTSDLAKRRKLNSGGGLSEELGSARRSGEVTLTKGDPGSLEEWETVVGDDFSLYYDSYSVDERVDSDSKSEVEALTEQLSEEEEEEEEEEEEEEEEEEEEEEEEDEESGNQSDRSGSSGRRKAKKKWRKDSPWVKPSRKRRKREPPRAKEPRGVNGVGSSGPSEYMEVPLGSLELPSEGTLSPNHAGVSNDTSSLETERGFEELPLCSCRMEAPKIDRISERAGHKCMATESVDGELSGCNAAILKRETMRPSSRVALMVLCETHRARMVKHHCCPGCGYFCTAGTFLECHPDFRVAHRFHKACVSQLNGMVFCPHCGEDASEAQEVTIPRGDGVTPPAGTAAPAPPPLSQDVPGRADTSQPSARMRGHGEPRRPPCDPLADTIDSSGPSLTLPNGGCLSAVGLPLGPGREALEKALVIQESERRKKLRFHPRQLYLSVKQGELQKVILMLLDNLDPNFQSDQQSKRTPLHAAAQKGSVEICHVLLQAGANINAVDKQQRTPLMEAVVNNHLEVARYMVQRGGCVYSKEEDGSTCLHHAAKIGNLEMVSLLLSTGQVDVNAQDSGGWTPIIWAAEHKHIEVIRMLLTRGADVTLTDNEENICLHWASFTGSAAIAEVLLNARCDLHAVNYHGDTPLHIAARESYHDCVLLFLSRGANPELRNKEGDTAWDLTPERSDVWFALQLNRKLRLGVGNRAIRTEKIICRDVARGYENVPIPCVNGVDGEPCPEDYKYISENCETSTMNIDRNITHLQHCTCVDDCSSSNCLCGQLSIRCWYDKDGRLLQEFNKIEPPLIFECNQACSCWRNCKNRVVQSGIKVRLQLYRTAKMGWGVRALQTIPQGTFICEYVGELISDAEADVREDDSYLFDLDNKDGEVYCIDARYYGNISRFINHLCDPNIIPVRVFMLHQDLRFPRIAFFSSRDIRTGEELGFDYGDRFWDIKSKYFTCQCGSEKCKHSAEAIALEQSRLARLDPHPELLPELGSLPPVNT
# [4] = molecular target: Protein arginine N-methyltransferase 3 (Homo sapiens, UniProt O60678); test: Inhibition of PRMT3 (unknown origin)
# Protein arginine N-methyltransferase 3, sequence (O60678 whole entry): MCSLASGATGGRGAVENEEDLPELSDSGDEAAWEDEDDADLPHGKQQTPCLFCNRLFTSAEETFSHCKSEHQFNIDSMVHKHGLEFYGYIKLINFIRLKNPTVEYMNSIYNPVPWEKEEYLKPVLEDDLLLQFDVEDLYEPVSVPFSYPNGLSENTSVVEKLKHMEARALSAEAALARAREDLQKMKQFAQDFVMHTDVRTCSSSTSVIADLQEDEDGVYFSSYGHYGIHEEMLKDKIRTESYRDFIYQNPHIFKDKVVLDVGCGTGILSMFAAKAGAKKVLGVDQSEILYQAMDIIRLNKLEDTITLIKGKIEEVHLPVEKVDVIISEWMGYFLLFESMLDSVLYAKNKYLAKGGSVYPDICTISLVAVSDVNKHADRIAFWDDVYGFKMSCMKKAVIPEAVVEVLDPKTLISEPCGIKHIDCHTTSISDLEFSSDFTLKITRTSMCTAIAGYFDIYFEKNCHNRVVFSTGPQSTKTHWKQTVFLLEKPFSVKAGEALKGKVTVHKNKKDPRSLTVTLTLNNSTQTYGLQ
# [5] = molecular target: T3, Histone-lysine N-methyltransferase SETD7 (Homo sapiens, UniProt Q8WTS6); test: Inhibition of SETD7 (unknown origin)
# T3 sequence (Q8WTS6 whole entry): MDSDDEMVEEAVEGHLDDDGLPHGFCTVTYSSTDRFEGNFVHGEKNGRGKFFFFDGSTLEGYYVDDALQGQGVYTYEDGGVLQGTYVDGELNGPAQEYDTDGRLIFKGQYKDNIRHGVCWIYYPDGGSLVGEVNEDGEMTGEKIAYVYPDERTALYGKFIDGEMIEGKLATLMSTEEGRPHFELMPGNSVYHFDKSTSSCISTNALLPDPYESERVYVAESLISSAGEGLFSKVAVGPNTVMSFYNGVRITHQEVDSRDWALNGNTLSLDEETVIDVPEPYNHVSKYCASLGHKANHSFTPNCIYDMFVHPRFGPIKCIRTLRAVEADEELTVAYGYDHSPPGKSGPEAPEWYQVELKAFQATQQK
# [6] = molecular target: Histone-lysine N-methyltransferase EZH2 (Homo sapiens, UniProt Q15910); test: Inhibition of EZH2 (unknown origin)
# Histone-lysine N-methyltransferase EZH2, sequence (Q15910 whole entry): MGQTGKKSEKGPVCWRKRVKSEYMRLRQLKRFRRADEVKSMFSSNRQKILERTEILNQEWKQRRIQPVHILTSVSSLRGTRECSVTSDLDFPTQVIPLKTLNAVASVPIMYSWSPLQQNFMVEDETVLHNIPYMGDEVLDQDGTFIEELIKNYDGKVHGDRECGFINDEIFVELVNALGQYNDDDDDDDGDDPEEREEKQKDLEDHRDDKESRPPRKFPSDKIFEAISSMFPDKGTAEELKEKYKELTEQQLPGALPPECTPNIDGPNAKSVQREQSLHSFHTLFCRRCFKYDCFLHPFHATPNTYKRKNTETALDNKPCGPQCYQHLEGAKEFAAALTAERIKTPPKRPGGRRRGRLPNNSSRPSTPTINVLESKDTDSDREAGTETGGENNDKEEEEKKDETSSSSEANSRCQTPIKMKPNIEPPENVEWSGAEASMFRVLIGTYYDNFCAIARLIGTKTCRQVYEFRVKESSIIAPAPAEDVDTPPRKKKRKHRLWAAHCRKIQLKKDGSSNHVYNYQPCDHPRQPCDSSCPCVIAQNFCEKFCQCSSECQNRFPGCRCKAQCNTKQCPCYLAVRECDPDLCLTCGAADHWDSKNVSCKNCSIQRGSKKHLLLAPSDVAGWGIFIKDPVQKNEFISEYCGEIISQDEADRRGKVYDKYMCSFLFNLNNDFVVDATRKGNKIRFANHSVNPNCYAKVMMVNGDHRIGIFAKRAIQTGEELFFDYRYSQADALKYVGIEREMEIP
# [7] = molecular target: DNA (cytosine-5)-methyltransferase 1 (Homo sapiens, UniProt P26358); test: Inhibition of DNMT1 (unknown origin)
# [8] = molecular target: Protein arginine N-methyltransferase 5 (Homo sapiens, UniProt O14744); test: Inhibition of PRMT5 (unknown origin)
# Protein arginine N-methyltransferase 5, sequence (O14744 whole entry): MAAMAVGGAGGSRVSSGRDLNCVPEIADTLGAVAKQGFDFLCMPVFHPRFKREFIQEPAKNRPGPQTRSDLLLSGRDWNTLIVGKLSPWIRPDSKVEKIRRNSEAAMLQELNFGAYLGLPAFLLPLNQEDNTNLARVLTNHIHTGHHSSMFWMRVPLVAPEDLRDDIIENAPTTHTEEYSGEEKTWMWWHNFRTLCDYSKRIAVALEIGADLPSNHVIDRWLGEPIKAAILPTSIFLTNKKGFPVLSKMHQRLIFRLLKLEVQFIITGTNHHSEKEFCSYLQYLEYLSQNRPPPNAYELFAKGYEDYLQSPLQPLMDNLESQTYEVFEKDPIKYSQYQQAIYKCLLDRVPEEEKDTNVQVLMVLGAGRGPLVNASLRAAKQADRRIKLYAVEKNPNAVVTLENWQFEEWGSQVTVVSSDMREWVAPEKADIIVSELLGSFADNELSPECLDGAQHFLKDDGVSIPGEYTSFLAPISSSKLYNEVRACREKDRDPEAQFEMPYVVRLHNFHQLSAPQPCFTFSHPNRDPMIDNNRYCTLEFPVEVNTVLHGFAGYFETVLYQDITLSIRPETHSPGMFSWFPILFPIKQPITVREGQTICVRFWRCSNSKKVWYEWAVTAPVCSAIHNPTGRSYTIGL
# [9] = molecular target: T1, Histone-lysine N-methyltransferase, H3 lysine-79 specific; test: Inhibition of DOT1L (unknown origin) at 250 uM using chicken nucleosome as substrate in presence of [3H]SAM incubated for 1 hr by TopCount method
# Target sequence in this assay (Q8TEK3 whole entry, looked up): as the sequence (Q8TEK3 whole entry) above
smiles,measurement,setting,value
N#Cc1c(Br)n([C@@H]2O[C@H](CO)[C@@H](O)[C@H]2O)c2ncnc(N)c12,IC50,[1],200 µM
Nc1ncnc2c1c(I)nn2[C@@H]1O[C@H](CO)[C@@H](O)[C@H]1O,IC50,[1],22 µM
N#Cc1cn([C@@H]2O[C@H](CO)[C@@H](O)[C@H]2O)c2ncnc(N)c12 [TOYOCAMYCIN],IC50,[1],44 µM
Nc1ncnc2c1c(-c1ncco1)cn2[C@@H]1O[C@H](CO)[C@@H](O)[C@H]1O,IC50,[1],43 µM
C#Cc1cn([C@@H]2O[C@H](CO)[C@@H](O)[C@H]2O)c2ncnc(N)c12,IC50,[1],41 µM
N#Cc1cn([C@@H]2O[C@H](CSCC[C@H](N)C(=O)O)[C@@H](O)[C@H]2O)c2ncnc(N)c12,IC50,[2],Not Active
same,IC50,[3],99 µM
same,IC50,[4],0.87 µM
same,IC50,[5],Not Active
same,IC50,[6],Not Active
same,IC50,[7],0.15 µM
same,IC50,[8],2.4 µM
Nc1ncnc2c1c(F)cn2[C@@H]1O[C@H](CO)[C@@H](O)[C@H]1O,IC50,[1],200 µM
COc1ccc(Cc2cn([C@@H]3O[C@H](CO)[C@@H](O)[C@H]3O)c3ncnc(N)c23)cc1,inhibition,[9],42%
Nc1ncnc2c1ncn2[C@@H]1O[C@H](CSCC[C@H](N)C(=O)O)[C@@H](O)[C@H]1O [S-ADENOSYLHOMOCYSTEINE],IC50,[2]; read-out: IC50,22 µM
same,IC50,[4],2 µM
same,IC50,[5]; read-out: IC50,47 µM
NC(=O)c1cn([C@@H]2O[C@H](CO)[C@@H](O)[C@H]2O)c2ncnc(N)c12 [SANGIVAMYCIN],IC50,[1],26 µM
